Results reported in US20220144848A1, “SUBSTITUTED OXOPYRIDINE DERIVATIVES” (Bayer Aktiengesellschaft, priority 2018, published 2022).

Columns and labels:
human plasma kallikrein = molecular target: T1, human plasma kallikrein (Homo sapiens, UniProt P03952); test: Determination of the plasma kallikrein activity (fluorogenic peptide substrate H-Pro-Phe-Arg-AMC); format: biochemical; settings: plasma kallikrein from Kordia, 15 min preincubation, 30 min at 22° C., fluorescence; some as mean values from multiple determinations
T1 construct: purchased Kordia
T1 sequence (P03952 391-638 limits assumed): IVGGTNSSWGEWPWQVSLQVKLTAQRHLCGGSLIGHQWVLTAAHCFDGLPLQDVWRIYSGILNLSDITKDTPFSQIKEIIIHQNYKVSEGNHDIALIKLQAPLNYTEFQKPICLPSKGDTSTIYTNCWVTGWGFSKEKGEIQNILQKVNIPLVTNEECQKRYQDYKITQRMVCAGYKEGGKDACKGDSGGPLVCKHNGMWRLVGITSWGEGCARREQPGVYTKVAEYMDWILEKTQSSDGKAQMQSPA
T1 sequence (P03952 20-390 partner limits assumed): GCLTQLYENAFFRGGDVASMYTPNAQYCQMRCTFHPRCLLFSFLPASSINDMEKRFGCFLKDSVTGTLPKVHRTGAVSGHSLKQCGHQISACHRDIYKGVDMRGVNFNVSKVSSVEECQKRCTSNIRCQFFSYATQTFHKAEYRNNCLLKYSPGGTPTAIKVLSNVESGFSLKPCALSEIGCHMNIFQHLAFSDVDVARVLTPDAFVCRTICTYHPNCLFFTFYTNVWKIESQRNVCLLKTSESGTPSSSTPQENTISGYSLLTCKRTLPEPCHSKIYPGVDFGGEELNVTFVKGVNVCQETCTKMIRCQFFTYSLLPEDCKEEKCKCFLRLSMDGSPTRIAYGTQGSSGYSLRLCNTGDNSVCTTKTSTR
Method: (§1) To determine the plasma kallikrein inhibition of the substances according to the invention, a biochemical test system is used which utilizes the reaction of a peptidic plasma kallikrein substrate to determine the enzymatic activity of human plasma kallikrein. Here, plasma kallikrein cleaves from the peptidic plasma kallikrein substrate the C-terminal aminomethylcoumarin (AMC), the fluorescence of which is measured. The determinations are carried out in microtitre plates.
Test substances are dissolved in dimethyl sulfoxide and serially diluted in dimethyl sulfoxide (3000 μM to 0.0078 μM; resulting final concentrations in the test: 50 μM to 0.00013 μM). In each case 1 μl of the diluted substance solutions is placed into the wells of white microtitre plates from Greiner (384 wells). 20 μl of assay buffer (50 mM Tris/HCl pH 7.4; 100 mM sodium chloride solution; 5 mM of calcium chloride solution; 0.1% of bovine serum albumin) and 20 μl of plasma kallikrein from Kordia (0.6 nM in assay buffer) are then added successively. After 15 min of incubation, the enzyme reaction is started by addition of 20 μl of the substrate H-Pro-Phe-Arg-AMC dissolved in assay buffer (10 μM in assay buffer) from Bachem, the mixture is incubated at room temperature (22° C.) for 30 min and fluorescence is then measured (excitation: 360 nm, emission: 460 nm). The measured emissions of the test batches with test substance are compared to those of control batches without test substance (only dimethyl sulfoxide instead of test substance in dimethyl sulfoxide), and IC50 values are calculated from the concentration/activity relationships. Activity data from this test are listed in Table B below (some as mean values from multiple independent individual determinations): […]

human factor XIa = molecular target: T2, human factor XIa (Homo sapiens, UniProt P03951); test: Measurement of FXIa inhibition (fluorogenic peptide substrate Boc-Glu(OBzl)-Ala-Arg-AMC); format: biochemical; settings: factor XIa from Kordia, 15 min preincubation, 30 min at 22° C., fluorescence; some as mean values from multiple determinations
T2 construct: purchased Kordia
T2 sequence (P03951 388-625 limits assumed): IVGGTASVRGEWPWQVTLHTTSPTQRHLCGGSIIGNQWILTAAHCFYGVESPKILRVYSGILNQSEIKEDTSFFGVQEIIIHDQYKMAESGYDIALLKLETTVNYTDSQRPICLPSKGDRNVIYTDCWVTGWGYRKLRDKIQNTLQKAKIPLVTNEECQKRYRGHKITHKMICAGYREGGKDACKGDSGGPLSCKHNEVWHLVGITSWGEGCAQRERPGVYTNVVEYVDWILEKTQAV
T2 sequence (P03951 19-387 partner limits assumed): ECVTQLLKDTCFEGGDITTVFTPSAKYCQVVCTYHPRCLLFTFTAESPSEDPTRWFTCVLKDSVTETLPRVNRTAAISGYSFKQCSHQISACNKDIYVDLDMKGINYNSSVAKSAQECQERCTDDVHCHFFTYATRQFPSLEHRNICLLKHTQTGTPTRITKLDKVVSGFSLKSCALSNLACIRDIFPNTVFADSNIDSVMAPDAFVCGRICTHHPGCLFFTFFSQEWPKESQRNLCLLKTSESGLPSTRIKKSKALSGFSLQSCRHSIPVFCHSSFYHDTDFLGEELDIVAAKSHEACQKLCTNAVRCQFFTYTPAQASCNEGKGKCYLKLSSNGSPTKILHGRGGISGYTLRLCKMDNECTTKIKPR
Method: as §1, with “The factor XIa” for “To determine the plasma kallikrein”, “invention is determined using” for “invention,”, “system” for “system is used”, “factor XIa” for “plasma kallikrein”, “factor XIa.” for “plasma kallikrein.”
Test substances are dissolved in dimethyl sulfoxide and serially diluted in dimethyl sulfoxide (3000 μM to 0.0078 μM; resulting final concentrations in the test: 50 μM to 0.00013 μM). In each case 1 μl of the diluted substance solutions is placed into the wells of white microtitre plates from Greiner (384 wells). 20 μl of assay buffer (50 mM of Tris/HCl pH 7.4; 100 mM of sodium chloride; 5 mM of calcium chloride; 0.1% of bovine serum albumin) and 20 μl of factor XIa from Kordia (0.45 nM in assay buffer) are then added successively. After 15 min of incubation, the enzyme reaction is started by addition of 20 μl of the factor XIa substrate Boc-Glu(OBzl)-Ala-Arg-AMC dissolved in assay buffer (10 μM in assay buffer) from Bachem, the mixture is incubated at room temperature (22° C.) for 30 min and fluorescence is then measured (excitation: 360 nm, emission: 460 nm). The measured emissions of the test batches with test substance are compared to those of control batches without test substance (only dimethyl sulfoxide instead of test substance in dimethyl sulfoxide), and IC50 values are calculated from the concentration/activity relationships.

SMILES | IC50 (human plasma kallikrein) [µM] | IC50 (human factor XIa) [µM]
NC(=O)c1ccc(NC(=O)C(C[C@@H]2CCCCO2)n2cc3c(cc2=O)-c2cc(Cl)ccc2CC(C(F)(F)F)OC3)cc1F (mixture of isomers) [Example 50, 4-({2-[11-Chloro-2-oxo-7-(trifluoromethyl)-7,8-dihydro-2H-[3]benzoxocino[5,6-c]pyridin-3(5H)-yl]-3-[(2S)-tetrahydro-2H-pyran-2-yl]propanoyl}amino)-2-fluorobenzamide] | 1.1 | 0.014
NC(=O)c1ccc(NC(=O)C(C[C@@H]2CCCCO2)n2cc3c(cc2=O)-c2cc(Cl)ccc2CC(C(F)(F)F)OC3)cn1 (mixture of isomers) [Example 52, 5-({2-[11-Chloro-2-oxo-7-(trifluoromethyl)-7,8-dihydro-2H-[3]benzoxocino[5,6-c]pyridin-3(5H)-yl]-3-[(2S)-tetrahydro-2H-pyran-2-yl]propanoyl}amino)pyridine-2-carboxamide] | 0.79 | 0.0065
NC(=O)c1ccc(NC(=O)C(C[C@@H]2CCCCO2)n2cc3c(cc2=O)-c2cc(Cl)ccc2CC(C(F)(F)F)OC3)cc1 (mixture of isomers) [Example 54, 4-({2-[11-Chloro-2-oxo-7-(trifluoromethyl)-7,8-dihydro-2H-[3]benzoxocino[5,6-c]pyridin-3(5H)-yl]-3-[(2S)-tetrahydro-2H-pyran-2-yl]propanoyl}amino)benzamide] | 0.4 | 0.0028
NC(=O)c1ccc(NC(=O)C(C[C@@H]2COCCO2)n2cc3c(cc2=O)-c2cc(Cl)ccc2CC(C(F)(F)F)OC3)cc1F (mixture of isomers) [Example 56, 4-({2-[11-Chloro-2-oxo-7-(trifluoromethyl)-7,8-dihydro-2H-[3]benzoxocino[5,6-c]pyridin-3(5H)-yl]-3-[(2R)-1,4-dioxan-2-yl]propanoyl}amino)-2-fluorobenzamide] | 0.74 | 0.0076
NC(=O)c1ccc(NC(=O)C(C[C@@H]2COCCO2)n2cc3c(cc2=O)-c2cc(Cl)ccc2CC(C(F)(F)F)OC3)cc1 (mixture of isomers) [Example 58, 4-({2-[11-Chloro-2-oxo-7-(trifluoromethyl)-7,8-dihydro-2H-[3]benzoxocino[5,6-c]pyridin-3(5H)-yl]-3-[(2R)-1,4-dioxan-2-yl]propanoyl}amino)benzamide] | 0.23 | 0.0021
COCCC(C(=O)Nc1ccc(C(N)=O)c(F)c1)n1cc2c(cc1=O)-c1cc(Cl)ccc1CC(C(F)(F)F)OC2 (mixture of isomers) [Example 60, 4-({2-[11-Chloro-2-oxo-7-(trifluoromethyl)-7,8-dihydro-2H-[3]benzoxocino[5,6-c]pyridin-3(5H)-yl]-4-methoxybutanoyl}amino)-2-fluorobenzamide] | 0.78 | 0.026
COCCC(C(=O)Nc1ccc(C(N)=O)cc1)n1cc2c(cc1=O)-c1cc(Cl)ccc1CC(C(F)(F)F)OC2 (mixture of isomers) [Example 62, 4-({2-[11-Chloro-2-oxo-7-(trifluoromethyl)-7,8-dihydro-2H-[3]benzoxocino[5,6-c]pyridin-3(5H)-yl]-4-methoxybutanoyl}amino)benzamide] | 0.42 | 0.0081
COCCC(C(=O)Nc1ccn2ncnc2c1)n1cc2c(cc1=O)-c1cc(Cl)ccc1CC(C(F)(F)F)OC2 (mixture of isomers) [Example 64, 2-[11-Chloro-2-oxo-7-(trifluoromethyl)-7,8-dihydro-2H-[3]benzoxocino[5,6-c]pyridin-3(5H)-yl]-4-methoxy-N-([1,2,4]triazolo[1,5-a]pyridin-7-yl)butanamide] | 0.58 | 0.042
CO[C@@H](C)CC(C(=O)Nc1ccc(C(N)=O)cc1)n1cc2c(cc1=O)-c1cc(Cl)ccc1C[C@@H](C(F)(F)F)OC2 (mixture of isomers) [Example 66, 4-({(4S)-2-[(7S)-11-Chloro-2-oxo-7-(trifluoromethyl)-7,8-dihydro-2H-[3]benzoxocino[5,6-c]pyridin-3(5H)-yl]-4-methoxypentanoyl}amino)benzamide] | 0.32 | 0.0051
CC1Cc2ccc(Cl)cc2-c2cc(=O)n(C(C[C@@H]3CCCCO3)C(=O)Nc3ccc(C(N)=O)c(F)c3)cc2CO1 (single isomer, unassigned) [Example 1] | 0.63 | 0.011
C[C@@H]1Cc2ccc(Cl)cc2-c2cc(=O)n([C@@H](C[C@@H]3CCCCO3)C(=O)Nc3ccc(C(N)=O)c(F)c3)cc2CO1 (single isomer, unassigned) [Example 2] | 0.32 | 0.0055
C[C@@H]1Cc2ccc(Cl)cc2-c2cc(=O)n([C@@H](C[C@@H]3CCCCO3)C(=O)Nc3ccc(C(N)=O)nc3)cc2CO1 (single isomer, unassigned) [Example 4] | 0.42 | 0.0024
C[C@@H]1Cc2ccc(Cl)cc2-c2cc(=O)n([C@@H](C[C@@H]3CCCCO3)C(=O)Nc3ccc(C(N)=O)cc3)cc2CO1 (single isomer, unassigned) [Example 6] | 0.14 | 0.0014
C[C@@H]1Cc2ccc(Cl)cc2-c2cc(=O)n([C@@H](C[C@@H]3COCCO3)C(=O)Nc3ccc(C(N)=O)c(F)c3)cc2CO1 (single isomer, unassigned) [Example 8] | 0.32 | 0.0066
C[C@@H]1Cc2ccc(Cl)cc2-c2cc(=O)n([C@@H](C[C@@H]3COCCO3)C(=O)Nc3ccc(C(N)=O)cc3)cc2CO1 (single isomer, unassigned) [Example 10] | 0.087 | 0.0012
C[C@@H]1Cc2ccc(Cl)cc2-c2cc(=O)n([C@@H](C[C@@H]3COCCO3)C(=O)Nc3ccc4nn(C)nc4c3)cc2CO1 (single isomer, unassigned) [Example 12] | 0.042 | 0.0033
CO[C@@H](C)C[C@@H](C(=O)Nc1ccc(C(N)=O)cc1)n1cc2c(cc1=O)-c1cc(Cl)ccc1C[C@@H](C)OC2 (single isomer, unassigned) [Example 13] | 0.205 | 0.0046
CO[C@H](C[C@@H](C(=O)Nc1ccc(C(N)=O)cc1)n1cc2c(cc1=O)-c1cc(Cl)ccc1C[C@@H](C)OC2)C1CC1 (single isomer, unassigned) [Example 14] | 0.22 | 0.0039
CO[C@H](C[C@@H](C(=O)Nc1ccc(C(N)=O)cc1)n1cc2c(cc1=O)-c1cc(Cl)ccc1C[C@@H](C)OC2)C(F)F (single isomer, unassigned) [Example 15] | 0.14 | 0.0034
C[C@@H]1Cc2ccc(Cl)cc2-c2cc(=O)n([C@@H](CCOC(F)F)C(=O)Nc3ccc(C(N)=O)cc3)cc2CO1 (single isomer, unassigned) [Example 17] | 0.072 | 0.002
C[C@@H]1Cc2ccc(Cl)cc2-c2cc(=O)n([C@@H](C[C@H](C)OC(F)F)C(=O)Nc3ccc(C(N)=O)cc3)cc2CO1 (single isomer, unassigned) [Example 19] | 0.11 | 0.0036
CC(C)OCC[C@@H](C(=O)Nc1ccc(C(N)=O)cc1)n1cc2c(cc1=O)-c1cc(Cl)ccc1C[C@@H](C)OC2 (single isomer, unassigned) [Example 20] | 0.093 | 0.0066
C[C@@H]1Cc2ccc(Cl)cc2-c2cc(=O)n([C@@H](CCOC(C)(C)C)C(=O)Nc3ccc(C(N)=O)c(F)c3)cc2CO1 (single isomer, unassigned) [Example 22] | 0.28 | 0.019
C[C@@H]1Cc2ccc(Cl)cc2-c2cc(=O)n([C@@H](CCOC(C)(C)C)C(=O)Nc3ccc(C(N)=O)cc3)cc2CO1 (single isomer, unassigned) [Example 24] | 0.11 | 0.0054
C[C@@H]1Cc2ccc(Cl)cc2-c2cc(=O)n([C@@H](CCOC(C)(C)C)C(=O)Nc3ccn4ncnc4c3)cc2CO1 (single isomer, unassigned) [Example 26] | 0.17 | 0.028
